Values of other authors as cited in patent publication US6555228B2, “Bio-supportive medium, and methods of making and using the same” (priority 2000, dated 2003).

What was measured:
[1] = system: other classes of organisms
[2] = system: several dinoflagelates; settings: until organic chelation occurs
[3] = system: some species
[4] = system: Torla (=Candida) utilis; settings: pH 7, simple form
[5] = system: Ophyotrocha Labronica; settings: 0.1 mg L^−1 of copper
[6] = system: most habitats
[7] = system: Artemia salina; settings: 1.0 mg L^−1 of copper
[8] = system: Barnacles and zebra mussels
[9] = system: Thalassiosira weissflogii; settings: very low concentrations

Row | SMILES | concentration at which biolimiting occurs [1] [ppm] | effect of copper on dinoflagelates [2] | lethal dose [3] [ppm] | amount of copper toxic to Torla (=Candida) utilis [4] [mg] | growth rate of Ophyotrocha Labronica [5] | generally available copper with no measurable negative effect [6] | growth rate of Artemia salina [7] | tolerance of copper [8] | effect of zinc ion activity on growth [9]
1 | [Cu+2] [copper] | ≥ 40 | inhibit | 10 | 20 | decreased significantly | below 0.62 mg/l | no change | can not tolerate any copper | 
2 | [Zn+2] [zinc] |  |  |  |  |  |  |  |  | growth limiting effect
